Measurements as given in publication PMC11372837, “Albumin-Mediated Drug Uptake by Organic Anion Transporter 1/3 Is Real: Implications for the Prediction of Active Renal Secretion Clearance” (Molecular Pharmaceutics, 2024).
Where “and” joins values, the source holds several entries; their conditions need not be identical. Equal values may be shown once. Read-outs that look alike come from different tables or passages of the source.

Key:
human serum albumin = human serum albumin (Homo sapiens, UniProt P02768); assay: Extent of albumin binding: high throughput equilibrium dialysis (fu,inc, Kd); type: in vitro ADME; conditions: for Kd: estimated using eq 3 from measured fu,inc; for fraction unbound at 6 h: human
human serum albumin, sequence (P02768 25-609): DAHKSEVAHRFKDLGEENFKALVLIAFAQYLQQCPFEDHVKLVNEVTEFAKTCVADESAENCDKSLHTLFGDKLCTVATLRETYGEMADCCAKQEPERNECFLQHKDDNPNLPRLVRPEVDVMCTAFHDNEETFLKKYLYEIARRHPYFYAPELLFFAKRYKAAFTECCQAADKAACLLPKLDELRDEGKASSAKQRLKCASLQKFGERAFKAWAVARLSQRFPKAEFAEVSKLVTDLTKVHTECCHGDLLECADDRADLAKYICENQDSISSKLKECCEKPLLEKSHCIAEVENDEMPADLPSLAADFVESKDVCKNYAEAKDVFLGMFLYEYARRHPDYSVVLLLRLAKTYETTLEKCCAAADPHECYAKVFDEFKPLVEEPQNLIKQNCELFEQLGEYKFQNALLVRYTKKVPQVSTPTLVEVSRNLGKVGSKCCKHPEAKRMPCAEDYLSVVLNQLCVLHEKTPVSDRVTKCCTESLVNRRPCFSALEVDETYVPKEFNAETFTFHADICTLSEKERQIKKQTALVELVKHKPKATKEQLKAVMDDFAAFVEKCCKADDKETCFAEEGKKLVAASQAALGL
Procedure: Briefly, cellulose membranes with MWCO of 12–14 kDa were submerged in distilled water for 1 h, followed by 20% ethanol/distilled water for at least 20 min. Prior to the start of the experiment, cellulose membranes were rinsed in distilled water and submerged in blank DPBS for 15 min. The HTDialysis device was assembled according to the manufacturer’s instructions (https://www.htdialysis.com). Blank DPBS was first added to the receiver side of the dialysis membranes, followed by DPBS spiked with HSA and the OAT1/3 substrate to the donor side. Each HSA concentration was tested in triplicates. The HTDialysis device was sealed with an adhesive sealing film and incubated in a water bath at 37 °C for 6 h shaken at 150 rpm. Once the assay was completed, aliquots from both receiver and donor wells were transferred to a 96-well plate and stored at −80 °C until analysis. DPBS spiked with the OAT1/3 substrate from both before and after incubation was stored to assess the recovery and stability of the samples. To prepare the sample for analysis, donor and receiver samples were matrix-matched and quenched with ice-cold acetonitrile containing an internal standard (0.5 μM gemfibrozil or 0.05 μM buspirone).

OAT1/3 [1] = assay: Bottom-up IVIVE of CLint,sec, CLsec and CLr, relative expression factor (REF) approach; design: species or system human; conditions: for CLint,sec Predicted 0% HSA / CLint,sec Predicted 1% HSA / CLint,sec Predicted 4% HSA / CLsec Predicted 0% HSA / CLsec Predicted 1% HSA / CLsec Predicted 4% HSA: REF approach
Excerpt: (§1) The relative expression and relative activity factor (REF and RAF) are unitless scalers that account for in vivo versus in vitro differences in the abundance and activity of OAT1/3 and are used for IVIVE of in vitro CLint,u,active. REF was derived from the OAT1/3 expression ratio between the in vivo human kidney cortex to the in vitro ciPTEC-OAT1/3, as shown in eq 7: [drawing 8] 7 Absolute abundance of OAT1 and OAT3 in the human kidney cortex was previously quantified by our group using the filter-aided sample preparation protocol and global proteomic analysis.[44]

OAT1/3 [2] = assay: Bottom-up IVIVE of CLint,sec, CLsec and CLr, relative activity factor (RAF) approach; design: species or system human
Excerpt: as §1

[3] = in vivo, plasma renal clearance, clinical data; cited from earlier work
OAT1 = target: T1, OAT1 (Homo sapiens, UniProt Q4U2R8); assay: OAT1 uptake study in ciPTEC-OAT1; conditions: for ratio of CLint,u,active (R) (HSA/control) 1%: OAT1, 1% HSA vs control; for ratio of CLint,u,active (R) (HSA/control) 1% / ratio of CLint,u,active (R) (HSA/control) 4%: unbound concentration kept constant; for ratio of CLint,u,active (R) (HSA/control) 4%: OAT1, 4% HSA vs control; for OAT1 substrate status (uptake in ciPTEC-OAT1): control vs probenecid 300 μM; for Vb,max OAT1, Active and Passive Uptake: eq 4 fitted to CLint,u; for Vb,max OAT1, Active and Passive Uptake / Vb,max OAT1, Active Uptake Only: mean ± S.D.; for Vb,max OAT1, Active Uptake Only: eq 4 fitted to CLint,u,active, Kd,m fixed from OAT3 data; for Change to passive diffusion clearance upon inclusion of 1% HSA: probenecid condition, preliminary experiments
T1 sequence (Q4U2R8 1-563): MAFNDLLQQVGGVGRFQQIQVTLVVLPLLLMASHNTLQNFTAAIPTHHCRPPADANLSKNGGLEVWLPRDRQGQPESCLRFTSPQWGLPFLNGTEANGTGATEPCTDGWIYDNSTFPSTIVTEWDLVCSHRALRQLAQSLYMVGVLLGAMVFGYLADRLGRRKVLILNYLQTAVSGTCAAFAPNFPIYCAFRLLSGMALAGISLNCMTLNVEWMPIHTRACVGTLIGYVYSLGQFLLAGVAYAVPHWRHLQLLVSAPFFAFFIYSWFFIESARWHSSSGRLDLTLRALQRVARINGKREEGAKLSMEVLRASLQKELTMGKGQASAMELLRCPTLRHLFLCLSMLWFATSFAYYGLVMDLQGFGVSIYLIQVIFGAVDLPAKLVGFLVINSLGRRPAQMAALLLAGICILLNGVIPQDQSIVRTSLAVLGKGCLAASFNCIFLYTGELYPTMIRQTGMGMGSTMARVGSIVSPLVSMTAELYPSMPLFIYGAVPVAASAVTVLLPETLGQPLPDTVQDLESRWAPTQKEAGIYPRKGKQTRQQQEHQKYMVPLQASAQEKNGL

OAT3 = target: T2, OAT3 (Homo sapiens, UniProt Q8TCC7); assay: OAT3 uptake study in ciPTEC-OAT3; conditions: for ratio of CLint,u,active (R) (HSA/control) 1%: OAT3, 1% HSA vs control; for ratio of CLint,u,active (R) (HSA/control) 4%: OAT3, 4% HSA vs control; for OAT3 substrate status (uptake in ciPTEC-OAT3): control vs probenecid 300 μM; for Vb,max OAT3, Active and Passive Uptake: eq 4 fitted to CLint,u; for Vb,max OAT3, Active and Passive Uptake / Vb,max OAT3, Active Uptake Only: mean ± S.D.; for Vb,max OAT3, Active Uptake Only: eq 4 fitted to CLint,u,active
T2 sequence (Q8TCC7 1-542): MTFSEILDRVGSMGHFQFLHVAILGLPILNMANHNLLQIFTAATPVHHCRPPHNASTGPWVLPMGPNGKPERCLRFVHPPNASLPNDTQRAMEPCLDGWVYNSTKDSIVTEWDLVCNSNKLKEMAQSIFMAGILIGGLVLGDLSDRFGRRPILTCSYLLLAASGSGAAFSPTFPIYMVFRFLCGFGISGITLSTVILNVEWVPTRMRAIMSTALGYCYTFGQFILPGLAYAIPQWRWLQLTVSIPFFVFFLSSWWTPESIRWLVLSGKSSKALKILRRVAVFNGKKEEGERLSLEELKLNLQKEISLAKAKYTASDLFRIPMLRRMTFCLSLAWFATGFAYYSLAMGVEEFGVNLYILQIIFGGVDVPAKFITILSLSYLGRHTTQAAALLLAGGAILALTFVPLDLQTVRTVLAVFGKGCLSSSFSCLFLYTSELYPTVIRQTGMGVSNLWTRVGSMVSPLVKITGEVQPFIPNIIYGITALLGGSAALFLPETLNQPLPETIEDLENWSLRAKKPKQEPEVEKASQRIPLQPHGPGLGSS

[4] = Observed in vivo (clinical) renal, secretion and intrinsic secretion clearance; conditions: in vivo; for CLint,sec Observed: back-calculated from clinical data; for CLsec Observed: plasma secretion clearance
[5] = human, in vivo
[6] = 1% human serum albumin in DPBS, 1% HSA, equilibrium dialysis 37 °C 6 h, mean ± SD, read-out: fu,inc (1%)
[7] = 4% HSA in DPBS, 4% HSA, equilibrium dialysis 37 °C 6 h, mean ± SD, read-out: fu,inc (4%)

## CCCc1nc(C(C)(C)O)c(C(=O)O)n1Cc1ccc(-c2ccccc2-c2nnn[nH]2)cc1 [olmesartan]
Human serum albumin; mean ± SD
  Kd: 1.43 ± 0.1 µM
Human serum albumin; [6]
  fraction unbound at 6 h: 0.011 ± 0.001
Human serum albumin; [7]
  fraction unbound at 6 h: 0.002 ± 0.0002
OAT1/3 [1]; 4% HSA, REF scaler
  Predicted in vivo percentage transported via OAT1 (versus OAT3): 33.1%
OAT1/3 [1]
  CLint,sec Predicted 0% HSA: 7.92 L/h
  CLint,sec Predicted 1% HSA: 85.2 L/h
  CLint,sec Predicted 4% HSA: 284 L/h
  CLsec Predicted 0% HSA: 0.02 L/h
  CLsec Predicted 1% HSA: 0.22 L/h
  CLsec Predicted 4% HSA: 0.74 L/h
OAT1/3 [1]; control phase (0% HSA)
  Predicted in vivo percentage transported via OAT1 (versus OAT3): 7.9%
OAT1/3 [2]
  CLint,sec Predicted 0% HSA: 34.2 L/h
  CLint,sec Predicted 1% HSA: 355 L/h
  CLint,sec Predicted 4% HSA: 976 L/h
  CLsec Predicted 0% HSA: 0.09 L/h
  CLsec Predicted 1% HSA: 0.92 L/h
  CLsec Predicted 4% HSA: 2.40 L/h
[3]
  CLr Observed: 0.61 L/h
OAT1
  ratio of CLint,u,active (R) (HSA/control) 1%: 17.9 ± 4.0
  ratio of CLint,u,active (R) (HSA/control) 4%: 122 and 122 ± 42
  OAT1 substrate status (uptake in ciPTEC-OAT1): dual OAT1/3 substrates
  Vb,max OAT1, Active and Passive Uptake: 75.7 ± 15.5 pmol/min/mg
  Vb,max OAT1, Active Uptake Only: 72.7 ± 15.0 pmol/min/mg
OAT3
  ratio of CLint,u,active (R) (HSA/control) 1%: 10.5 ± 2.3
  ratio of CLint,u,active (R) (HSA/control) 4%: 28 and 28.1 ± 3.0
  OAT3 substrate status (uptake in ciPTEC-OAT3): dual OAT1/3 substrates
  Vb,max OAT3, Active and Passive Uptake: 46.2 ± 12.3 pmol/min/mg
  Vb,max OAT3, Active Uptake Only: 44.2 ± 12.3 pmol/min/mg
[4]
  CLint,sec Observed: 229 L/h
  CLsec Observed: 0.59 L/h
[4]; listed as Olmesartan
  CLint,sec Observed: 228 L/h

## Cc1ncc(CO)c(C(=O)O)c1O [4-pyridoxic acid]
Human serum albumin; mean ± SD
  Kd: 56.4 ± 2.5 µM
Human serum albumin; 0.5% HSA in DPBS, 0.5% HSA, mean ± S.D., read-out: fu,inc
  fraction unbound at 6 h: 0.4 ± 0.042
Human serum albumin; [6]
  fraction unbound at 6 h: 0.298 ± 0.005
Human serum albumin; 2% HSA in DPBS, 2% HSA, mean ± S.D., read-out: fu,inc
  fraction unbound at 6 h: 0.163 ± 0.005
Human serum albumin; [7]
  fraction unbound at 6 h: 0.079 ± 0.006
OAT1/3 [1]
  CLint,sec Predicted 0% HSA: 3.46 L/h
  CLint,sec Predicted 1% HSA: 7.85 L/h
  CLint,sec Predicted 4% HSA: 12.6 L/h
  CLsec Predicted 0% HSA: 0.29 L/h
  CLsec Predicted 1% HSA: 0.66 L/h
  CLsec Predicted 4% HSA: 1.05 L/h
OAT1/3 [1]; regardless of albumin inclusion and of RAF/REF approach
  Predicted CLr, CLsec and CLint,sec as % of observed: < 20%
OAT1/3 [2]
  CLint,sec Predicted 0% HSA: 8.79 L/h
  CLint,sec Predicted 1% HSA: 22.1 L/h
  CLint,sec Predicted 4% HSA: 32.6 L/h
  CLsec Predicted 0% HSA: 0.74 L/h
  CLsec Predicted 1% HSA: 1.79 L/h
  CLsec Predicted 4% HSA: 2.57 L/h
[3]
  CLr Observed: 15.6 L/h
OAT1; 0.5% HSA, total concentration constant at 10 µM, preliminary
  fold increase in OAT1 CLint,u,active versus control: 1.50 fold
OAT1; 0.5% HSA, unbound concentration constant at 1.0 µM
  fold increase in OAT1 CLint,u,active versus control: 1.50 fold
OAT1; 1.0% HSA, total concentration constant at 10 µM, preliminary
  fold increase in OAT1 CLint,u,active versus control: 1.82 fold
OAT1; 2.0% HSA, total concentration constant at 10 µM, preliminary
  fold increase in OAT1 CLint,u,active versus control: 0.93 fold
OAT1; 2.0% HSA, unbound concentration constant at 1.0 µM
  fold increase in OAT1 CLint,u,active versus control: 1.79 fold
OAT1; 4.0% HSA, total concentration constant at 10 µM, preliminary
  fold increase in OAT1 CLint,u,active versus control: 2.2 fold
OAT1
  ratio of CLint,u,active (R) (HSA/control) 1%: 1.92 ± 0.65
  ratio of CLint,u,active (R) (HSA/control) 4%: 3.46 ± 0.47
  OAT1 substrate status (uptake in ciPTEC-OAT1): dual OAT1/3 substrates
  Vb,max OAT1, Active and Passive Uptake: 222 ± 24.6 pmol/min/mg
  Vb,max OAT1, Active Uptake Only: 213 ± 24 pmol/min/mg
  Change to passive diffusion clearance upon inclusion of 1% HSA: minimal change
OAT1; listed as PDA
  ratio of CLint,u,active (R) (HSA/control) 1%: 1.92
  ratio of CLint,u,active (R) (HSA/control) 4%: 3.46
  Change to passive diffusion clearance upon inclusion of 1% HSA: minimal changes
OAT1; ciPTEC-OAT1, 300 µM probenecid
  unbound passive diffusion clearance (CLpd): 0.031 µL/min/mg
OAT1; ciPTEC-OAT1, 1.0% HSA + 300 µM probenecid
  unbound passive diffusion clearance (CLpd): 0.039 µL/min/mg
OAT3
  ratio of CLint,u,active (R) (HSA/control) 1%: 2.64 ± 1.12
  ratio of CLint,u,active (R) (HSA/control) 4%: 3.85 ± 1.30
  OAT3 substrate status (uptake in ciPTEC-OAT3): dual OAT1/3 substrates
  Vb,max OAT3, Active and Passive Uptake: 53.1 ± 17.1 pmol/min/mg
  Vb,max OAT3, Active Uptake Only: 51.9 ± 15.8 pmol/min/mg
[4]
  CLint,sec Observed: 340 L/h
  CLsec Observed: 14.8 L/h

## NS(=O)(=O)c1cc(C(=O)O)c(NCc2ccco2)cc1Cl [furosemide]
[5]
  CLsec Observed: 5.07 L/h
OAT3
  Vb,max OAT3, Active and Passive Uptake: 478 ± 139 pmol/min/mg
  Vb,max OAT3, Active Uptake Only: 453 ± 127 pmol/min/mg

## CCCN(CCC)S(=O)(=O)c1ccc(C(=O)O)cc1 [probenecid]
OAT3; probenecid 300 μM, 0% HSA
  Effect on OAT3-mediated uptake of the substrates: significantly reduced
